# Results from patent US6288091A, “Antiherpes virus compounds and methods for their preparation and use” (Boehringer Ingelheim Ltd., priority 1999, dated 2001).
# Read-outs that look alike come from different tables or passages of the source.
# Assays:
# HSV-1 helicase-primase = target: T1, HSV-1 helicase-primase (Human herpesvirus 1, UniProt P10189+P10236); assay: HSV-1 DNA-dependent ATPase assay (inhibition of HSV-1 helicase-primase); format: biochemical
# T1 construct: made in house; host or cells: Sf21 insect cells triply infected with recombinant baculoviruses (UL5, UL8, UL52)
# T1 sequence (P10192 whole entry): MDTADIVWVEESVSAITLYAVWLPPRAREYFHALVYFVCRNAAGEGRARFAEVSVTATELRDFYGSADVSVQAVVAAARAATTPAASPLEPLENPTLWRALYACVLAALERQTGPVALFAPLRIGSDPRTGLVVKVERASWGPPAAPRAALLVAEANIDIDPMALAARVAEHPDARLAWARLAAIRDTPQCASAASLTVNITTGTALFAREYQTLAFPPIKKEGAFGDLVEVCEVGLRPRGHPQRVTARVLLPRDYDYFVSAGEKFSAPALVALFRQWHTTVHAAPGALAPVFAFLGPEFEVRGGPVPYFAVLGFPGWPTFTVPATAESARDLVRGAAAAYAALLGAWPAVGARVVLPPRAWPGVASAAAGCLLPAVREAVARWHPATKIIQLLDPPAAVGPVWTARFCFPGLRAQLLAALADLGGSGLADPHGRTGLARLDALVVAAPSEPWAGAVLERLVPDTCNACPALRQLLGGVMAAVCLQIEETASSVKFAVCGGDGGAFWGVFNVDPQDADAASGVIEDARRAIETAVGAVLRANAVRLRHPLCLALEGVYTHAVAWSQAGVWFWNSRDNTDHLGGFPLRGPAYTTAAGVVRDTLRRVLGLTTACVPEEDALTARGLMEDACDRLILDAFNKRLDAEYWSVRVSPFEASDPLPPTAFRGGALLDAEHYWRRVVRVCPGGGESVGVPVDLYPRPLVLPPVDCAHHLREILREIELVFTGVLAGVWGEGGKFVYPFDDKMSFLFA
# T1 sequence (P10236 whole entry): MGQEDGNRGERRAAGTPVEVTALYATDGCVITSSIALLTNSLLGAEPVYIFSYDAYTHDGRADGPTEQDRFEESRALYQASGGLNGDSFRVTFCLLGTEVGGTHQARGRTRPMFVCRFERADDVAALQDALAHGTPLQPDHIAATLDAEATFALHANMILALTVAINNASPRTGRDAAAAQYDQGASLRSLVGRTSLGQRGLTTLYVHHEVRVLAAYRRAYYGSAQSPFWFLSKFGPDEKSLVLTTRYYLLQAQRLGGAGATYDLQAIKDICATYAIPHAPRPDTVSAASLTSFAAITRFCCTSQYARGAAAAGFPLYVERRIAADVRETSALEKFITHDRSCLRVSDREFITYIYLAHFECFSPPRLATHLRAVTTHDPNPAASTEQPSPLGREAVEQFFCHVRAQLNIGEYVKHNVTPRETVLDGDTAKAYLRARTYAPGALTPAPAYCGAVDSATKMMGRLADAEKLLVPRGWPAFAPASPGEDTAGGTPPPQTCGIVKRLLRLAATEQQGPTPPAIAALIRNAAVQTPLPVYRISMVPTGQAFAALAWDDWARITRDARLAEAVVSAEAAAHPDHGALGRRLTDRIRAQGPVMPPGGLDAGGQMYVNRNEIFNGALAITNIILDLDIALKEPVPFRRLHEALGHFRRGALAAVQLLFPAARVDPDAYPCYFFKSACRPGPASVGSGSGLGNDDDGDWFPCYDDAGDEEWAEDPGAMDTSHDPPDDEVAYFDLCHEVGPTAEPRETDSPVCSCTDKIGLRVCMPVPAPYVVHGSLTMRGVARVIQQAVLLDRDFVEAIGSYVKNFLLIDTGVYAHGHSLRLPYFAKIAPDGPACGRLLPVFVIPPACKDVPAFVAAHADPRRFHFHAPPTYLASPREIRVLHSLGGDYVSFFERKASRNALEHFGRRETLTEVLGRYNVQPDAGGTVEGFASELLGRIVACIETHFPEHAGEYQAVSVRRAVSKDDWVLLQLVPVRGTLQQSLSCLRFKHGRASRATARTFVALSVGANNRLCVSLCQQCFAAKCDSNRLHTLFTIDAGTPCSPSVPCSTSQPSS
# T1 sequence (P10189 whole entry): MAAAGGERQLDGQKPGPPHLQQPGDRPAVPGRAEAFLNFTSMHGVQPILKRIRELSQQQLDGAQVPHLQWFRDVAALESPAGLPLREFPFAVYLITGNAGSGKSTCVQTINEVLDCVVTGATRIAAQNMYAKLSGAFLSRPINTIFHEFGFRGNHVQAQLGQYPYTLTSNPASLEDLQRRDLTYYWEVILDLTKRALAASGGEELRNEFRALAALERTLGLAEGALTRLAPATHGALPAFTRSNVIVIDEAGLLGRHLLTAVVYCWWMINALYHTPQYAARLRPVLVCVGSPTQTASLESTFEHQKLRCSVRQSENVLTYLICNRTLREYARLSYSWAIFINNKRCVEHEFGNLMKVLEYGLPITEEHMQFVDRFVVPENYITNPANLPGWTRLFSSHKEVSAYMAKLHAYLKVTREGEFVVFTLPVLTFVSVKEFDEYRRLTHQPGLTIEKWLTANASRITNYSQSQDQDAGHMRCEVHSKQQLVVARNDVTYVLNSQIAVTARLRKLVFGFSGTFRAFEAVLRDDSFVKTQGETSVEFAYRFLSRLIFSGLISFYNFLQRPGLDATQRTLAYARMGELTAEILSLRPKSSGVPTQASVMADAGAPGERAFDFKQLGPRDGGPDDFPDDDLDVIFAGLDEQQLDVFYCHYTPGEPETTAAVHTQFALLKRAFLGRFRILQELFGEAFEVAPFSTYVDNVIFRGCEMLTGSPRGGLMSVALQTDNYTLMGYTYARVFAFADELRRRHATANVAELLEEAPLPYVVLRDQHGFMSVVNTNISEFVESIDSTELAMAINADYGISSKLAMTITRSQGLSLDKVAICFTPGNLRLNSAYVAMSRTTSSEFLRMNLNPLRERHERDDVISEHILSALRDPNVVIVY
# Summary of the method: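 ATP hydrolysis was measured as inorganic phosphate (malachite green/molybdate, 650 nm) after 20 min at 34°. Reaction: 3 μg/mL purified Sf21-expressed UL5/UL8/UL52 helicase-primase, 25 μM single-stranded M13 DNA hybridized to 68-mer, 4 mM ATP, pH 7.5 HEPES buffer, 3.3% DMSO. Net absorbance change with and without inhibitor gave DNA-dependent ATPase activity.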
# HCMV (strain AD169) = assay: Inhibition of HCMV replication, plaque reduction assay (PRA, Hs-68 cells); format: cell-based, Human Cytomegalovirus (HCMV); conditions: read-out: PRA CMV EC50
# Summary of the method: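 Hs-68 monolayers (80–90% confluent) were infected with ~50 PFU HCMV AD169 for 2 h at 37°, then given compound in DMEM/5% inactivated FBS, refreshed after 4 days and kept 4 more days. Plaques were counted after formaldehyde fixation and crystal violet staining. EC50 derives from percent plaque reduction versus untreated wells.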
# [1] = Human betaherpesvirus 5, AD169, Hs68, Group 1 Table 3 entries
# [2] = Group 1 Table 2 entries (Q = CH2)
# [3] = Human betaherpesvirus 5, AD169, Hs68, Group 1 Table 2 entries
# [4] = Human betaherpesvirus 5, AD169, Hs68, Group 1 Table 1 entries
# [5] = Human betaherpesvirus 5, AD169, Hs68, Group 1 Table 5 entries
Compound,IC50 (HSV-1 helicase-primase; Group 1 Table 1 entries) [µM],EC50 (HCMV (strain AD169); [4]) [µM],also measured
CN(C(=O)CN(Cc1ccccc1)C(=O)C1CCCCC1)c1ccc(-c2csc(N)n2)cc1 [Example 1],–,–,IC50 (HSV-1 helicase-primase; Group 1 Table 3 entries): 0.053 µM; EC50 (HCMV (strain AD169); [1]): 24 µM
Nc1nc(-c2ccc(NC(=O)CCNCc3ccccc3)cc2)cs1 [Example 1],–,–,IC50 (HSV-1 helicase-primase; [2]): 21 µM; EC50 (HCMV (strain AD169); [3]): 30 µM
Nc1nc(-c2ccc(NC(=O)CNCc3ccccc3)cc2)cs1 [Example 1],6.4,> 60,–
Nc1nc(-c2ccc(NC(=O)CCN(Cc3ccccc3)Cc3ccccc3)cc2)cs1 [Example 2],–,–,IC50 (HSV-1 helicase-primase; [2]): 1.2 µM; EC50 (HCMV (strain AD169); [3]): 4.7 µM
CC(C)(C)OC(=O)N[C@@H](Cc1ccccc1)C(=O)Nc1ccc(-c2csc(N)n2)cc1 [Example 3],–,–,IC50 (HSV-1 helicase-primase; Group 1 Table 5 entries): 0.046 µM; EC50 (HCMV (strain AD169); [5]): 24 µM
Nc1nc(-c2ccc(NC(=O)CCN(Cc3ccccc3)C(=O)c3ccccc3)cc2)cs1 [Example 3],–,–,IC50 (HSV-1 helicase-primase; [2]): 2.1 µM; EC50 (HCMV (strain AD169); [3]): 9.2 µM
CC(C)(C)OC(=O)N[C@H](Cc1ccccc1)C(=O)Nc1ccc(-c2csc(N)n2)cc1 [Example 4],–,–,IC50 (HSV-1 helicase-primase; Group 1 Table 5 entries): 1.5 µM; EC50 (HCMV (strain AD169); [5]): 22 µM
O=C(CN(Cc1ccccc1)C(=O)C1CCCCC1)Nc1ccc(-c2cscn2)cc1 [Example 5],–,–,IC50 (HSV-1 helicase-primase; Group 1 Table 3 entries): 0.1 µM; EC50 (HCMV (strain AD169); [1]): 16 µM
CNc1nc(-c2ccc(NC(=O)CN(Cc3ccccc3)C(=O)c3ccccc3)cc2)cs1 [Example 6],–,–,IC50 (HSV-1 helicase-primase; Group 1 Table 3 entries): 0.33 µM; EC50 (HCMV (strain AD169); [1]): 16 µM
Nc1nc(-c2ccc(NC(=O)[C@H](Cc3ccccc3)NCc3ccccc3)cc2)cs1 [Example 6],–,–,IC50 (HSV-1 helicase-primase; Group 1 Table 5 entries): 1.06 µM; EC50 (HCMV (strain AD169); [5]): 7 µM
CN[C@@H](Cc1ccccc1)C(=O)Nc1ccc(-c2csc(N)n2)cc1 [Example 8],–,–,IC50 (HSV-1 helicase-primase; Group 1 Table 5 entries): 45 µM; EC50 (HCMV (strain AD169); [5]): 33 µM
Nc1nc(-c2ccc(NC(=O)[C@@H](Cc3ccccc3)N(Cc3ccccc3)C(=O)C3CCCCC3)cc2)cs1 [Example 9],–,–,IC50 (HSV-1 helicase-primase; Group 1 Table 5 entries): 0.052 µM; EC50 (HCMV (strain AD169); [5]): 8.7 µM
CN(C)c1nc(-c2ccc(NC(=O)CN(Cc3ccccc3)C(=O)c3ccccc3)cc2)cs1 [Example 11],–,–,IC50 (HSV-1 helicase-primase; Group 1 Table 3 entries): > 50 µM; EC50 (HCMV (strain AD169); [1]): 18 µM
C[C@@H](NCC(=O)Nc1ccc(-c2csc(N)n2)cc1)c1ccccc1 [Example 11],3.7,19,–
Nc1nc(-c2ccc(NC(=O)CCN(C(=O)c3cccnc3)C3Cc4ccccc4C3)cc2)cs1 [Example 12],–,–,IC50 (HSV-1 helicase-primase; [2]): 10 µM; EC50 (HCMV (strain AD169); [3]): 8 µM
CC(C)(C)OC(=O)N(CCC(=O)Nc1ccc(-c2csc(N)n2)cc1)C1Cc2ccccc2C1 [Example 14],–,–,IC50 (HSV-1 helicase-primase; [2]): 1.7 µM; EC50 (HCMV (strain AD169); [3]): > 28 µM
CC(C)(C)OC(=O)N(CCC(=O)Nc1ccc(-c2csc(N)n2)cc1)Cc1ccccc1 [Example 15],–,–,IC50 (HSV-1 helicase-primase; [2]): 0.28 µM; EC50 (HCMV (strain AD169); [3]): 9 µM
CN(CC(=O)Nc1ccc(-c2csc(N)n2)cc1)Cc1ccccc1 [Example 15],3.3,6.5,–
Nc1nc(-c2ccc(NC(=O)CN(Cc3ccccc3)Cc3ccccc3)cc2)cs1 [Example 16],0.55,13,–
Nc1nc(-c2ccc(NC(=O)CCN(Cc3ccccc3)CC3CCCCC3)cc2)cs1 [Example 17],–,–,IC50 (HSV-1 helicase-primase; [2]): 0.76 µM; EC50 (HCMV (strain AD169); [3]): > 5 µM
CC(=O)Nc1nc(-c2ccc(NC(=O)CN(Cc3ccccc3)C(C)=O)cc2)cs1 [Example 18],–,–,IC50 (HSV-1 helicase-primase; Group 1 Table 3 entries): > 100 µM; EC50 (HCMV (strain AD169); [1]): > 81 µM

Compound,IC50 (HSV-1 helicase-primase; Group 1 Table 1 entries) [µM],EC50 (HCMV (strain AD169); [4]) [µM],also measured
C[C@@H](c1ccccc1)N(CCC(=O)Nc1ccc(-c2csc(N)n2)cc1)C(=O)OC(C)(C)C [Example 18],–,–,IC50 (HSV-1 helicase-primase; [2]): 1 µM; EC50 (HCMV (strain AD169); [3]): 3.3 µM
C[C@@H](c1ccccc1)N(CCC(=O)Nc1ccc(-c2csc(N)n2)cc1)Cc1ccccc1 [Example 19],–,–,IC50 (HSV-1 helicase-primase; [2]): 0.46 µM; EC50 (HCMV (strain AD169); [3]): 4 µM
CC(C)c1nc(-c2ccc(NC(=O)CN(Cc3ccccc3)C(=O)c3ccccc3)cc2)cs1 [Example 20],–,–,IC50 (HSV-1 helicase-primase; Group 1 Table 3 entries): > 50 µM; EC50 (HCMV (strain AD169); [1]): 70 µM
C[C@H](NCCC(=O)Nc1ccc(-c2csc(N)n2)cc1)c1ccccc1 [Example 20],–,–,IC50 (HSV-1 helicase-primase; [2]): 7.2 µM; EC50 (HCMV (strain AD169); [3]): 13 µM
CC(C)(C)OC(=O)N(CCC(=O)Nc1ccc(-c2csc(N)n2)cc1)CC1CCCCC1 [Example 21],–,–,IC50 (HSV-1 helicase-primase; [2]): 0.028 µM; EC50 (HCMV (strain AD169); [3]): 6.5 µM
Nc1nc(-c2ccc(NC(=O)CN(Cc3ccccc3)C(=O)c3ccccc3)cc2)cs1 [Example 23],0.072,36,–
Nc1nc(-c2ccc(NC(=O)CCN(CC3CCCCC3)C(=O)c3cccnc3)cc2)cs1 [Example 24],–,–,IC50 (HSV-1 helicase-primase; [2]): 1.2 µM; EC50 (HCMV (strain AD169); [3]): 31 µM
Nc1nc(-c2ccc(NC(=O)CN(Cc3ccccc3)C(=O)c3ccc(F)cc3)cc2)cs1 [Example 24],0.048,15,–
C[C@@H](NCCC(=O)Nc1ccc(-c2csc(N)n2)cc1)c1ccccc1 [Example 25],–,–,IC50 (HSV-1 helicase-primase; [2]): 13.6 µM; EC50 (HCMV (strain AD169); [3]): > 6 µM
Nc1nc(-c2ccc(NC(=O)CN(Cc3ccccc3)C(=O)Cc3ccccc3)cc2)cs1 [Example 26],0.5,15,–
Nc1nc(-c2ccc(NC(=O)CN(Cc3ccccc3)C(=O)c3cccnc3)cc2)cs1 [Example 28],0.43,35,–
Nc1nc(-c2ccc(NC(=O)CN(Cc3ccccc3)C(=O)c3cc[n+]([O-])cc3)cc2)cs1 [Example 30],0.44,> 88,–
Nc1nc(-c2ccc(NC(=O)CN(Cc3ccccc3)C(=O)Cc3ccccn3)cc2)cs1 [Example 31],1.6,8.1,–
Nc1nc(-c2ccc(NC(=O)CN(Cc3ccccc3)C(=O)c3cccs3)cc2)cs1 [Example 32],0.42,8.5,–
Nc1nc(-c2ccc(NC(=O)CN(Cc3ccccc3)C(=O)c3cnccn3)cc2)cs1 [Example 33],1.1,20,–
Nc1nc(-c2ccc(NC(=O)CN(Cc3ccccc3)C(=O)C3CCCCC3)cc2)cs1 [Example 34],0.026,15,–
Nc1nc(-c2ccc(NC(=O)CN(Cc3ccccc3)C(=O)CC3CCCCC3)cc2)cs1 [Example 38],0.088,4.6,–
Nc1nc(-c2ccc(NC(=O)CN(Cc3ccccc3)C(=O)CC3CCCC3)cc2)cs1 [Example 39],0.059,8.5,–
CC(C)(C)C(=O)N(CC(=O)Nc1ccc(-c2csc(N)n2)cc1)Cc1ccccc1 [Example 41],0.8,34,–
CC(C)(C)CC(=O)N(CC(=O)Nc1ccc(-c2csc(N)n2)cc1)Cc1ccccc1 [Example 42],0.026,20,–
CC(C)C(=O)N(CC(=O)Nc1ccc(-c2csc(N)n2)cc1)Cc1ccccc1 [Example 43],1.6,13,–

Compound,IC50 (HSV-1 helicase-primase; Group 1 Table 1 entries) [µM],EC50 (HCMV (strain AD169); [4]) [µM],also measured
CC(=O)N(CC(=O)Nc1ccc(-c2csc(N)n2)cc1)Cc1ccccc1 [Example 44],3.3,37,–
Nc1nc(-c2ccc(NC(=O)CN(Cc3ccccn3)C(=O)C3CCCCC3)cc2)cs1 [Example 47],0.072,> 103,–
Nc1nc(-c2ccc(NC(=O)CN(Cc3cccnc3)C(=O)C3CCCCC3)cc2)cs1 [Example 48],0.14,49,–
Nc1nc(-c2ccc(NC(=O)CN(CCc3ccccn3)C(=O)C3CCCCC3)cc2)cs1 [Example 50],0.6,13,–
Nc1nc(-c2ccc(NC(=O)CN(Cc3cccs3)C(=O)C3CCCCC3)cc2)cs1 [Example 51],0.063,11,–
C[C@H](c1ccccc1)N(CC(=O)Nc1ccc(-c2csc(N)n2)cc1)C(=O)C1CCCCC1 [Example 52],0.087,6,–
C[C@@H](c1ccccc1)N(CC(=O)Nc1ccc(-c2csc(N)n2)cc1)C(=O)C1CCCCC1 [Example 53],0.038,12,–
Nc1nc(-c2ccc(NC(=O)CN(CC3CCCCC3)C(=O)c3ccccc3)cc2)cs1 [Example 60],1.5,–,EC50 (HCMV (strain AD169); Group 1 Table 1 entries): 15 µM
Nc1nc(-c2ccc(NC(=O)CN(CC3CCCCC3)C(=O)C3CCNCC3)cc2)cs1 [Example 62],–,38,"inhibition at 50 µM (HSV-1 helicase-primase; Group 1 Table 1 entries, at 50 μM, read-out: inhibition at 50 μM (printed in the HSV-1 IC50 column)): 29%"
Nc1nc(-c2ccc(NC(=O)CN(CCc3ccccc3)C(=O)C3CCCC3)cc2)cs1 [Example 66],0.4,> 10,–
CC(C)(C)OC(=O)NCC(=O)N(CC(=O)Nc1ccc(-c2csc(N)n2)cc1)Cc1ccccc1 [Example 72],0.65,24,–
Nc1nc(-c2ccc(NC(=O)CN(CC3CCCCC3)C(=O)Cc3ccccc3)cc2)cs1 [Example 77],0.37,7.5,–
Nc1nc(-c2ccc(NC(=O)CN(CCc3ccccn3)C(=O)C3CCCC3)cc2)cs1 [Example 79],0.84,55,–
CC(C)(C)CN(CC(=O)Nc1ccc(-c2csc(N)n2)cc1)C(=O)C1CCCCC1 [Example 80],0.96,9.5,–
Nc1nc(-c2ccc(NC(=O)CN(Cc3ccc(F)cc3)C(=O)c3ccncc3)cc2)cs1 [Example 84],0.36,37,–
CC(C)(C)OC(=O)N(CC(=O)Nc1ccc(-c2csc(N)n2)cc1)Cc1ccccc1 [Example 85],0.016,12,–
C[C@@H](c1ccccc1)N(CC(=O)Nc1ccc(-c2csc(N)n2)cc1)C(=O)OC(C)(C)C [Example 89],0.098,38,–
CC(C)(C)OC(=O)N(CC(=O)Nc1ccc(-c2csc(N)n2)cc1)Cc1ccncc1 [Example 90],0.058,88,–
CC(C)(C)NC(=S)N(CC(=O)Nc1ccc(-c2csc(N)n2)cc1)Cc1ccccc1 [Example 93],0.16,> 24,–
